# According to PubChem BioAssay (NCI):
#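 Cells were grown in 96-well plates and exposed to each compound for 48 hours at five concentrations; endpoints were interpolated linearly between bracketing concentrations, or set to the highest concentration if not reached. TGI: concentration producing complete growth inhibition.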
# Tests used:
# Experiment in all cases: inhibition of tumour cell growth, NCI panel, 48 h
# A498 renal = tested on: A498 renal
# A549 NSCLC = tested on: A549 NSCLC
# ACHN renal = tested on: ACHN renal
# CAKI-1 renal = tested on: CAKI-1 renal
# CCRF-CEM leukemia = tested on: CCRF-CEM leukemia
# COLO 205 colon = tested on: COLO 205 colon
# DMS 114 small cell lung = tested on: DMS 114 small cell lung
# DMS 273 small cell lung = tested on: DMS 273 small cell lung
# EKVX NSCLC = tested on: EKVX NSCLC
# HCT-116 colon = tested on: HCT-116 colon
# HCT-15 colon = tested on: HCT-15 colon
# HL-60(TB) leukemia = tested on: HL-60(TB) leukemia
# HOP-18 NSCLC = tested on: HOP-18 NSCLC
# HOP-92 NSCLC = tested on: HOP-92 NSCLC
# HT29 colon = tested on: HT29 colon
# IGROV1 ovarian = tested on: IGROV1 ovarian
# K-562 leukemia = tested on: K-562 leukemia
# KM20L2 colon = tested on: KM20L2 colon
# LOX IMVI melanoma = tested on: LOX IMVI melanoma
# LXFL 529 NSCLC = tested on: LXFL 529 NSCLC
# M14 melanoma = tested on: M14 melanoma
# M19-MEL melanoma = tested on: M19-MEL melanoma
# MOLT-4 leukemia = tested on: MOLT-4 leukemia
# NCI-H23 lung = tested on: NCI-H23 lung
# NCI-H460 lung = tested on: NCI-H460 lung
# OVCAR-3 ovarian = tested on: OVCAR-3 ovarian
# OVCAR-4 ovarian = tested on: OVCAR-4 ovarian
# OVCAR-8 ovarian = tested on: OVCAR-8 ovarian
# RPMI-8226 leukemia = tested on: RPMI-8226 leukemia
# RXF 393 renal = tested on: RXF 393 renal
# SF-295 CNS = tested on: SF-295 CNS
# SF-539 CNS = tested on: SF-539 CNS
# SK-MEL-28 melanoma = tested on: SK-MEL-28 melanoma
# SK-MEL-5 melanoma = tested on: SK-MEL-5 melanoma
# SK-OV-3 ovarian = tested on: SK-OV-3 ovarian
# SN12C renal = tested on: SN12C renal
# SNB-19 CNS = tested on: SNB-19 CNS
# SNB-75 CNS = tested on: SNB-75 CNS
# SNB-78 CNS = tested on: SNB-78 CNS
# SW-620 colon = tested on: SW-620 colon
# TK-10 renal = tested on: TK-10 renal
# U251 CNS = tested on: U251 CNS
# UACC-257 melanoma = tested on: UACC-257 melanoma
# UACC-62 melanoma = tested on: UACC-62 melanoma
# XF 498 CNS = tested on: XF 498 CNS
# 786-0 renal = tested on: 786-0 renal
# DLD-1 colon = tested on: DLD-1 colon
# HCC-2998 colon = tested on: HCC-2998 colon
# HOP-62 NSCLC = tested on: HOP-62 NSCLC
# KM12 colon = tested on: KM12 colon
# MALME-3M melanoma = tested on: MALME-3M melanoma
# NCI-H226 lung = tested on: NCI-H226 lung
# NCI-H522 lung = tested on: NCI-H522 lung
# OVCAR-5 ovarian = tested on: OVCAR-5 ovarian
# RXF-631 renal = tested on: RXF-631 renal
# SF-268 CNS = tested on: SF-268 CNS
# SK-MEL-2 melanoma = tested on: SK-MEL-2 melanoma
# SR leukemia = tested on: SR leukemia
# UO-31 renal = tested on: UO-31 renal
smiles,measurement,setting,value
O=C1CCC2COc3ccc(O)c1c32 (stereo unspecified),TGI,A498 renal,> 100 µM
same,TGI,A549 NSCLC,> 100 µM
same,TGI,ACHN renal,> 100 µM
same,TGI,CAKI-1 renal,> 100 µM
same,TGI,CCRF-CEM leukemia,> 100 µM
same,TGI,COLO 205 colon,> 100 µM
same,TGI,DMS 114 small cell lung,> 100 µM
same,TGI,DMS 273 small cell lung,> 100 µM
same,TGI,EKVX NSCLC,> 100 µM
same,TGI,HCT-116 colon,> 100 µM
same,TGI,HCT-15 colon,> 100 µM
same,TGI,HL-60(TB) leukemia,> 100 µM
same,TGI,HOP-18 NSCLC,> 100 µM
same,TGI,HOP-92 NSCLC,> 100 µM
same,TGI,HT29 colon,> 100 µM
same,TGI,IGROV1 ovarian,> 100 µM
same,TGI,K-562 leukemia,> 100 µM
same,TGI,KM20L2 colon,> 100 µM
same,TGI,LOX IMVI melanoma,> 100 µM
same,TGI,LXFL 529 NSCLC,> 100 µM
same,TGI,M14 melanoma,> 100 µM
same,TGI,M19-MEL melanoma,> 100 µM
same,TGI,MOLT-4 leukemia,> 100 µM
same,TGI,NCI-H23 lung,> 100 µM
same,TGI,NCI-H460 lung,> 100 µM
same,TGI,OVCAR-3 ovarian,> 100 µM
same,TGI,OVCAR-4 ovarian,> 100 µM
same,TGI,OVCAR-8 ovarian,> 100 µM
same,TGI,RPMI-8226 leukemia,> 100 µM
same,TGI,RXF 393 renal,> 100 µM
same,TGI,SF-295 CNS,> 100 µM
same,TGI,SF-539 CNS,> 100 µM
same,TGI,SK-MEL-28 melanoma,> 100 µM
same,TGI,SK-MEL-5 melanoma,> 100 µM
same,TGI,SK-OV-3 ovarian,> 100 µM
same,TGI,SN12C renal,> 100 µM
same,TGI,SNB-19 CNS,95.9 µM
same,TGI,SNB-75 CNS,> 100 µM
same,TGI,SNB-78 CNS,> 100 µM
same,TGI,SW-620 colon,> 100 µM
same,TGI,TK-10 renal,> 100 µM
same,TGI,U251 CNS,> 100 µM
same,TGI,UACC-257 melanoma,> 100 µM
same,TGI,UACC-62 melanoma,> 100 µM
same,TGI,XF 498 CNS,> 100 µM
N#C/C(=C\c1ccc[nH]1)C(=O)c1ccccc1,TGI,786-0 renal,> 100 µM
same,TGI,A549 NSCLC,> 100 µM
same,TGI,ACHN renal,> 100 µM
same,TGI,CAKI-1 renal,> 100 µM
same,TGI,CCRF-CEM leukemia,> 100 µM
same,TGI,COLO 205 colon,> 100 µM
same,TGI,DLD-1 colon,> 100 µM
same,TGI,DMS 114 small cell lung,> 100 µM
same,TGI,DMS 273 small cell lung,> 100 µM
same,TGI,EKVX NSCLC,> 100 µM
same,TGI,HCC-2998 colon,> 100 µM
same,TGI,HCT-116 colon,> 100 µM
same,TGI,HCT-15 colon,> 100 µM
same,TGI,HL-60(TB) leukemia,> 100 µM
same,TGI,HOP-18 NSCLC,> 100 µM
same,TGI,HOP-62 NSCLC,> 100 µM
same,TGI,HOP-92 NSCLC,> 100 µM
same,TGI,HT29 colon,> 100 µM
same,TGI,K-562 leukemia,> 100 µM
same,TGI,KM12 colon,> 100 µM
same,TGI,KM20L2 colon,> 100 µM
same,TGI,LOX IMVI melanoma,> 100 µM
same,TGI,LXFL 529 NSCLC,> 100 µM
same,TGI,M14 melanoma,> 100 µM
same,TGI,M19-MEL melanoma,> 100 µM
same,TGI,MALME-3M melanoma,> 100 µM
same,TGI,MOLT-4 leukemia,> 100 µM
same,TGI,NCI-H226 lung,> 100 µM
same,TGI,NCI-H23 lung,> 100 µM
same,TGI,NCI-H460 lung,> 100 µM
same,TGI,NCI-H522 lung,> 100 µM
same,TGI,OVCAR-3 ovarian,> 100 µM
same,TGI,OVCAR-4 ovarian,> 100 µM
same,TGI,OVCAR-5 ovarian,> 100 µM
same,TGI,OVCAR-8 ovarian,> 100 µM
same,TGI,RPMI-8226 leukemia,> 100 µM
same,TGI,RXF 393 renal,> 100 µM
same,TGI,RXF-631 renal,> 100 µM
same,TGI,SF-268 CNS,> 100 µM
same,TGI,SF-295 CNS,> 100 µM
same,TGI,SF-539 CNS,> 100 µM
same,TGI,SK-MEL-2 melanoma,> 100 µM
same,TGI,SK-MEL-28 melanoma,> 100 µM
same,TGI,SK-MEL-5 melanoma,> 100 µM
same,TGI,SK-OV-3 ovarian,> 100 µM
same,TGI,SN12C renal,> 100 µM
same,TGI,SNB-19 CNS,> 100 µM
same,TGI,SNB-75 CNS,> 100 µM
same,TGI,SNB-78 CNS,> 100 µM
same,TGI,SR leukemia,> 100 µM
same,TGI,SW-620 colon,> 100 µM
same,TGI,TK-10 renal,> 100 µM
same,TGI,U251 CNS,> 100 µM
same,TGI,UACC-257 melanoma,> 100 µM
same,TGI,UACC-62 melanoma,> 100 µM
same,TGI,UO-31 renal,> 100 µM
